Assay results reported in publication PMC6219988 (Biochemistry, 2018).

System: PTP1B
Assay: PTP1B-catalyzed hydrolysis of pNPP in the presence of inhibitors
Type: biochemical
Details: IC50 at 20 mM pNPP

In the case of `CC(C)C1C=C2CCC3C(C)(C(=O)O)CCCC3(C)C2CC1` (single isomer, unassigned; diaa) [DiAA, dihydroabietic acid], the “potency (IC50) relative to AA” value (ratio vs AA) is reported as 3 fold and the “potency (IC50) relative to DeAA” value (ratio vs DeAA) is reported as 7 fold.
